{
  "source": "patent US9815788B2",
  "about": "“Anti-angiogenic compounds” (University College Dublin National University of Ireland, …, priority 2012, dated 2017)",
  "key": {"CysLT2 receptor": {"target": "T1, CysLT2 receptor (Homo sapiens, UniProt Q9NS75)", "T1 construct": "host or cells: HEK 293 cells", "T1 sequence (Q9NS75 1-346)": "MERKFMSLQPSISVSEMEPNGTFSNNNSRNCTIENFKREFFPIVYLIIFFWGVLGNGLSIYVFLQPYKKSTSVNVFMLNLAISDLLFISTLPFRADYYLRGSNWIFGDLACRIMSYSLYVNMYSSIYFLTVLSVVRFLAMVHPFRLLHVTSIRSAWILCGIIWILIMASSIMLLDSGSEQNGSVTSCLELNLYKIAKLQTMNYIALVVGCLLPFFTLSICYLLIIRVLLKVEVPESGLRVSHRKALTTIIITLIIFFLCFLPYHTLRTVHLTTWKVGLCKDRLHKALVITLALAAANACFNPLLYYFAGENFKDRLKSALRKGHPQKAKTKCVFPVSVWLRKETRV", "assay": "CysLT2 calcium mobilisation assay in HEK 293 cells", "type": "cell-based", "conditions": "HEK293, 30 nM LTC4, HEK-293 cells expressing CysLT2, read-out: inhibition of calcium mobilisation (CysLT2 antagonism)", "experimental": "(§1) FIG. 15 tables the percentage inhibition by compounds 11B_CC11_HCl and 11B_CC16_HCl on the cysteinyl leukotriene pathway in in vitro and ex vivo assays. […] For in vitro cysteinyl leukotriene cell-based assays 11B_CC11_HCl and 11B_CC16_HCl, were tested at 30 μM concentration in duplicate, in a single experiment for their ability to inhibit the calcium mobilisation response of the CysLT1 receptor to 0.1 nM leukotriene D4 in CHO cells over-expressing the CysLT1 receptor or the calcium mobilisation response of the CysLT2 receptor to 30 nM of leukotriene C4 in HEK 293 cells over expressing the CysLT2 receptor.\n(§2) Target profiling using Cerep and Eurofins/Panlabs profiling screens was undertaken using 11B_CC11_HCl and 11B_CC16_HCl in order to investigate the mechanism of action. […] Test substance (30 LM)-induced isometrically recorded contraction by 50 percent or more within 5 min, relative to control 3 nM leukotriene D4 response, indicates possible cysteinyl-leukotriene LT1 receptor agonist activity. […] To measure inhibition of cysteinyl leukotriene 1 (CysLT1 [LTD4]) and cysteinyl leukotriene 2 (CysLT2 [LTC4]) receptor activity, calcium mobilisation was measured using Fluor-3-loaded CHO cells (for cysLT1 assays) or HEK-293 cells (for CysLT2 assays) which stably express either the CysLT1 or CysLT2 receptors. […]"}, "CysLT1 receptor": {"target": "T2, CysLT1 receptor (Homo sapiens, UniProt Q9Y271)", "T2 construct": "host or cells: CHO cells", "T2 sequence (Q9Y271 1-337)": "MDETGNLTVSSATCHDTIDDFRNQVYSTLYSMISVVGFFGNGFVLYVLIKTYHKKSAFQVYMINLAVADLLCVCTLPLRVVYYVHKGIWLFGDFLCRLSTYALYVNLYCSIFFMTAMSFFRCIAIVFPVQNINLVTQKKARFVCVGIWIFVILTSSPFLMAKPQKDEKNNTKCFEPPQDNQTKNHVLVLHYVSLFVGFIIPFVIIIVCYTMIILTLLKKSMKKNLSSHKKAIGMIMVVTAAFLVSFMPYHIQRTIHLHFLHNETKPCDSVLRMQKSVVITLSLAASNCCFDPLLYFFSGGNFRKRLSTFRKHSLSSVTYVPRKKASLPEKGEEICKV", "assay": "CysLT1 calcium mobilisation assay in CHO cells", "type": "cell-based", "conditions": "0.1 nM LTD4, CHO cells expressing CysLT1, read-out: inhibition of calcium mobilisation (CysLT1 antagonism)", "experimental": "as §1, §2"}},
  "data": [
    {"smiles": "C/C(=C\\c1ccccc1O)c1ccc2ccccc2n1.Cl", "note": "[Compound 11B_CC11_HCl, (E)-2-(2-Quinolin-2-yl-propenyl)-phenol HCl salt]", "values": [
      {"measurement": "inhibition at 30 µM", "setting": "CysLT2 receptor", "value": 41, "unit": "%"},
      {"measurement": "inhibition at 30 µM", "setting": "CysLT1 receptor", "value": 137, "unit": "%"}
    ]}
  ]
}
